Tests used:
[1] = target: monoamine transporter on dopaminergic neurons (Rattus norvegicus, UniProt P23977); settings: 0.5 mM inhibitor in uptake buffer
From the text: The functional status of the dopaminergic neurons may be assayed in these cultures by measuring dopamine uptake through specific “scavenger” transporters in the dopaminergic neurons and by counting the number of neurons positive for the dopamine synthetic enzyme tyrosine hydroxylase using immunohistochemistry.

[2] = test system: serotonergic neurons in rat embryo mesencephalic cultures; assay: 3H-serotonin uptake in mesencephalic cultures; format: cell-based; settings: 10 μM inhibitor
Procedure: FIGS. 24A-B depicts the specificity of GDNF to dopaminergic neurons. Cultures were prepared as described in Example 1B. GDNF was added on the day of plating, and uptake was measured after 6 days in vitro. A depicts dopamine uptake and B depicts serotonin uptake.
In the presence of 10 μM citalpram (obtained from Dr. C. Mytilineou, Mount Sinai School of Medicine), a known potent inhibitor of serotonin uptake in serotonin neurons, the ^3H-serotonin uptake was reduced to 15%.

[3] = test system: GABA neurons in mesencephalic cultures; assay: 14C-GABA uptake in mesencephalic cultures; format: cell-based, rat; settings: 1 mM inhibitor
Procedure: FIGS. 21A-C depicts the specificity of GDNF to dopaminergic neurons. Cultures were established as described in Example 1B. GDNF was added on the day of plating. A. ^3H-DA uptake was measured after seven days in vitro. B. ^14C-GABA uptake was measured after eight days in vitro. Cells were incubated and treated as for ^3H-DA uptake, except the uptake buffer consists of Kreb-Ringer's phosphate buffer, pH 7.4, containing 5.6 mM glucose, 1.3 mM EDTA, 10 μM amino-oxyacetic acid (to prevent GABA breakdown), 2 mM β-alanine (to inhibit glia uptake of GABA) and 0.1 μM ^14C-GABA (150 mCi/mmole, New England Nuclear, Boston, Mass.). In the presence of 1 mM diaminobutyric acid (DABA), a potent inhibitor of ^14C-GABA uptake into GABA neurons, the ^14C-uptake was reduced to 10%. Control values in the presence of DABA were subtracted from experimental values.
H^3-dopamine (^3H-DA) and ^14C-GABA uptake were measured in sister cultures of mesencephalic cells which had been grown with various concentrations of GDNF for 15 and 16 days, respectively. As described above, GDNF enhanced the ^3H-DA uptake capacity of mesencephalic dopamine neurons ˜150% over control without GDNF (FIG. 21A). […] This is also illustrated by the increase in the ^3H-DA/^14C-GABA uptake ratio calculated (FIG. 21C).

[4] = test system: serotonergic neurons in rat embryo mesencephalic cultures; settings: Casper et al. 1991; cited from earlier work
[5] = test system: GABA neurons in mesencephalic cultures; settings: Casper et al. 1991; cited from earlier work
[6] = test system: dopaminergic neurons in rat embryo (E16) mesencephalic cell cultures; settings: Casper et al. 1991; cited from earlier work

monoamine transporter on dopaminergic neurons, sequence (P23977 whole entry): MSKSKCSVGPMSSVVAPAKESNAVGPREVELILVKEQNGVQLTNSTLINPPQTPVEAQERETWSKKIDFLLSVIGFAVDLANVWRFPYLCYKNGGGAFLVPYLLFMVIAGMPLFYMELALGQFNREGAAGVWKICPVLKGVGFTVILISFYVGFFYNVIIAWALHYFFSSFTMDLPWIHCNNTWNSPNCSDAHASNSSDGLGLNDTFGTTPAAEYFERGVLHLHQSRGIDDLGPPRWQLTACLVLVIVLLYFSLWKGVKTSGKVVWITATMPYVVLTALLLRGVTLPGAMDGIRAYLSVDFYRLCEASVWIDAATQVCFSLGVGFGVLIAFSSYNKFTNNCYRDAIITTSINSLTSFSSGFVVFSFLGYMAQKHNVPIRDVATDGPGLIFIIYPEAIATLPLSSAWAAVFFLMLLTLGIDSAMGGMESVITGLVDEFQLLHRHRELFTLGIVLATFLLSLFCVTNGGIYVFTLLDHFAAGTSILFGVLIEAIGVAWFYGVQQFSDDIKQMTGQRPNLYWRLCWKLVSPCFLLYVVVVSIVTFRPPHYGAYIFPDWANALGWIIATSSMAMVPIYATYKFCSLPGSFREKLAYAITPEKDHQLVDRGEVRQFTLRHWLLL

Fc1ccc(C(OCCN2CCN(CCCc3ccccc3)CC2)c2ccc(F)cc2)cc1 [GBR12909]
blank 3H-DA uptake as % of uptake in untreated control cultures [1]: less than 5%

CN(C)CCCC1(c2ccc(F)cc2)OCc2cc(C#N)ccc21 (stereo not drawn) [citalpram, reference compound]
3H-serotonin uptake remaining in presence of inhibitor [2]: 15%

NCCC(N)C(=O)O (stereo not drawn) [diaminobutyric acid (DABA), diaminobutyric acid, reference compound]
14C-uptake remaining in presence of inhibitor [3]: 10%

epidermal growth factor (NSDSECPLSHDGYCLHDGVCMYIEALDKYACNCVVGYIGERCQYRDLKWWELR; Epidermal growth factor; UniProt P01133 971-1023, looked up) [EGF, non-specific factor increasing dopamine, serotonin and GABA uptake]
effect on serotonin uptake [4]: increase serotonin uptake | effect on GABA uptake [5]: increase | effect on dopamine uptake [6]: increase dopamine uptake
